Measured values from patent US10829473B2, “Modulators of the cystic fibrosis transmembrane conductance regulator protein and methods of use” (AbbVie Overseas S.Á.R.L., priority 2017, dated 2020).
Like-named read-outs stand apart in the source and are kept apart here.

Biological target: T1, F508delCFTR (Homo sapiens, UniProt P13569, DEL508-508)
T1 construct: expressed in transfected cells; host or cells: CFBE41o- human lung derived epithelial cells (CFBE41o-F508delCFTR-HRP), doxycycline-inducible
Assay: Cell Surface Expression-Horse Radish Peroxidase (CSE-HRP) Assay;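 for EC50 (with co-corrector): co-corrector chromenyl benzoic acid corrector at 2 or 3 µM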;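 for Maximum % activity (without co-corrector): % of on-plate positive control chromenyl benzoic acid corrector at 2 or 3 µM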
Type: cell-based
Conditions: for Maximum % activity (with co-corrector) / Emax: maximum at any tested concentration; for Emax: read-out: Maximum % activity (without co-corrector)
Method in brief: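 Corrector compounds were given as 8-point 3-fold series from 20 or 30 μM, with or without a 2 μM co-corrector, for 18-24 h at 33 °C. Surface HRP was read by luminol luminescence as % of positive control; variable-Hill-slope sigmoidal fitting gave EC50 from triplicate plates.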

[1] = test compound alone, without co-corrector, read-out: EC50 (without co-corrector)
[2] = with co-corrector, read-out: EC50 (with co-corrector)

T1 sequence (P13569 with tags, fused parts or gaps DEL508-508): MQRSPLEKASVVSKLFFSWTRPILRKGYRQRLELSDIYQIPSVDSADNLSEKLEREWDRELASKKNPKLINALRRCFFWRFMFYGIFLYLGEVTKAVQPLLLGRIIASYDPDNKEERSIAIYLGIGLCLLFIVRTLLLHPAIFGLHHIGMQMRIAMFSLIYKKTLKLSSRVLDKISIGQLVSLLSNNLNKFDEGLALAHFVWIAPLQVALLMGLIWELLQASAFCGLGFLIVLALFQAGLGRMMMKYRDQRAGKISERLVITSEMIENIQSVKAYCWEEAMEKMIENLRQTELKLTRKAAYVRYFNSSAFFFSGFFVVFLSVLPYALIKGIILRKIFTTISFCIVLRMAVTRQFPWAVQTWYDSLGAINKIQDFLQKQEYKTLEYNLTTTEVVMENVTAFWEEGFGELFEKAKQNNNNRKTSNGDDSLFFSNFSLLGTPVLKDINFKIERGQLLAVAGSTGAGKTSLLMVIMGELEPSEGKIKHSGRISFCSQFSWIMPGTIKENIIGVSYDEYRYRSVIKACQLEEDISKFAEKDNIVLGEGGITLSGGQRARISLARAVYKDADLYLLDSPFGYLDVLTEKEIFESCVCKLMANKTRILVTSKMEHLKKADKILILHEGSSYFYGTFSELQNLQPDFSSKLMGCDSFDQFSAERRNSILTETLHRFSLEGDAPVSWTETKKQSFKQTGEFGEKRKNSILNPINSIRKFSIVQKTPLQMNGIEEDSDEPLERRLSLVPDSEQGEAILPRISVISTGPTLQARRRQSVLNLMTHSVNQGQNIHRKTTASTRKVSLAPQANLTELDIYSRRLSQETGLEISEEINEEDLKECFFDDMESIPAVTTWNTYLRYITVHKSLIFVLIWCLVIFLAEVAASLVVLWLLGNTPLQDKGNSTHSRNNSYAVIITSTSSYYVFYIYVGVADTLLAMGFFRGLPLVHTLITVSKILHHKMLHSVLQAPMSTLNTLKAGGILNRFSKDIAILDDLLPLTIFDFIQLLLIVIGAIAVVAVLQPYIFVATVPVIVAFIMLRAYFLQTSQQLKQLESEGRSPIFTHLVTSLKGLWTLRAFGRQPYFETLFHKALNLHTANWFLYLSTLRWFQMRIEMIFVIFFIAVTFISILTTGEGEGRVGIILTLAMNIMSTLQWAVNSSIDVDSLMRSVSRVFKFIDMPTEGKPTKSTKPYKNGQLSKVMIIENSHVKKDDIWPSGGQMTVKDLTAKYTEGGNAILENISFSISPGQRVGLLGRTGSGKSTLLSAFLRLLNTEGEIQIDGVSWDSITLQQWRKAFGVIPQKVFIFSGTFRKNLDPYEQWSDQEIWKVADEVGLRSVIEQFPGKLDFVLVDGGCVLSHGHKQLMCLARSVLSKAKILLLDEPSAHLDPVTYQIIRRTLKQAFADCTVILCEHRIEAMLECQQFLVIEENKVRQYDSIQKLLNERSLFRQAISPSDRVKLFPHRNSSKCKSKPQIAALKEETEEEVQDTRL

Row | SMILES | EC50 [1] [µM] | Maximum % activity (with co-corrector) (with co-corrector) | EC50 [2] [µM] | Emax (without co-corrector) [%]
1 | Cc1cnc(OC(C)C)c(C2(C(=O)NS(=O)(=O)c3cccc4nc(N)ccc34)CC2)c1 [Example I-97, N-(2-aminoquinoline-5-sulfonyl)-1-{5-methyl-2-[(propan-2-yl)oxy]pyridin-3-yl}cyclopropane-1-carboxamide] | < 3 | +++ (≥350) | < 3 | > 150
2 | CCc1cnc(OCC(C)C)c(C2(C(=O)NS(=O)(=O)c3cccc4nc(N)ccc34)CC2)c1 [Example I-98, N-(2-aminoquinoline-5-sulfonyl)-1-[5-ethyl-2-(2-methylpropoxy)pyridin-3-yl]cyclopropane-1-carboxamide] | < 3 | +++ (≥350) | < 3 | > 150
3 | CCOc1ccc(C(C)(C)OCC)cc1C1(C(=O)NS(=O)(=O)c2cccc3ncccc23)CC1 [Example I-99, 1-[2-ethoxy-5-(2-ethoxypropan-2-yl)phenyl]-N-(quinoline-5-sulfonyl)cyclopropane-1-carboxamide] | < 3 | +++ (≥350) | < 3 | > 150
4 | Cc1ccc(OC(F)F)c(C2(C(=O)NS(=O)(=O)c3cccc4ncccc34)CC2)c1 [Example I-100, 1-[2-(difluoromethoxy)-5-methylphenyl]-N-(quinoline-5-sulfonyl)cyclopropane-1-carboxamide] | < 3 | +++ (≥350) | < 3 | > 150
5 | CCOc1ccc(C(C)(C)COC)cc1C1(C(=O)NS(=O)(=O)c2cccc3ncccc23)CC1 [Example I-101, 1-[2-ethoxy-5-(1-methoxy-2-methylpropan-2-yl)phenyl]-N-(quinoline-5-sulfonyl)cyclopropane-1-carboxamide] | < 3 | +++ (≥350) | < 3 | > 150
6 | CCOc1ccc(C2(OC)CCC2)cc1C1(C(=O)NS(=O)(=O)c2cccc3ncccc23)CC1 [Example I-102, 1-[2-ethoxy-5-(1-methoxycyclobutyl)phenyl]-N-(quinoline-5-sulfonyl)cyclopropane-1-carboxamide] | < 3 | +++ (≥350) | < 3 | > 150
7 | CCOc1ccc(C(C)(C)OCC)cc1C1(C(=O)NS(=O)(=O)c2cccc3nc(C)ccc23)CC1 [Example I-103, 1-[2-ethoxy-5-(2-ethoxypropan-2-yl)phenyl]-N-(2-methylquinoline-5-sulfonyl)cyclopropane-1-carboxamide] | < 3 | +++ (≥350) | < 3 | > 150
8 | CCOc1ccc(C(C)(C)OC)cc1C1(C(=O)NS(=O)(=O)c2cccc3nc(C)ccc23)CC1 [Example I-104, 1-[2-ethoxy-5-(2-methoxypropan-2-yl)phenyl]-N-(2-methylquinoline-5-sulfonyl)cyclopropane-1-carboxamide] | < 3 | +++ (≥350) | < 3 | > 150
9 | CCOc1ccc(C2(OC)CCC2)cc1C1(C(=O)NS(=O)(=O)c2cccc3nc(C)ccc23)CC1 [Example I-105, 1-[2-ethoxy-5-(1-methoxycyclobutyl)phenyl]-N-(2-methylquinoline-5-sulfonyl)cyclopropane-1-carboxamide] | < 3 | +++ (≥350) | < 3 | > 150
10 | Cc1ccc(OC2COC2)c(C2(C(=O)NS(=O)(=O)c3cccc4nc(C)ccc34)CC2)c1 [Example I-106, 1-{5-methyl-2-[(oxetan-3-yl)oxy]phenyl}-N-(2-methylquinoline-5-sulfonyl)cyclopropane-1-carboxamide] | 3 to 10 | +++ (≥350) | < 3 | > 150
11 | COC[C@@H](C)Oc1ccc(C)cc1C1(C(=O)NS(=O)(=O)c2cccc3nc(C)ccc23)CC1 [Example I-107, 1-(2-{[(2R)-1-methoxypropan-2-yl]oxy}-5-methylphenyl)-N-(2-methylquinoline-5-sulfonyl)cyclopropane-1-carboxamide] | < 3 | +++ (≥350) | < 3 | > 150
12 | CC(C)COc1ccc(N(C)C)c(C2(C(=O)NS(=O)(=O)c3cccc4ncccc34)CC2)n1 [Example I-108, 1-[3-(dimethylamino)-6-(2-methylpropoxy)pyridin-2-yl]-N-(quinoline-5-sulfonyl)cyclopropane-1-carboxamide] | < 3 | +++ (≥350) | < 3 | > 150
13 | Cc1ccc2c(S(=O)(=O)NC(=O)C3(c4cc(N(C)C)cnc4OCC(C)C)CC3)cccc2n1 [Example I-109, 1-[5-(dimethylamino)-2-(2-methylpropoxy)pyridin-3-yl]-N-(2-methylquinoline-5-sulfonyl)cyclopropane-1-carboxamide] | < 3 | +++ (≥350) | < 3 | > 150
14 | COCC(C)(C)c1ccc(OC)c(C2(C(=O)NS(=O)(=O)c3cccc4ncccc34)CC2)c1 [Example I-110, 1-[2-methoxy-5-(1-methoxy-2-methylpropan-2-yl)phenyl]-N-(quinoline-5-sulfonyl)cyclopropane-1-carboxamide] | < 3 | +++ (≥350) | < 3 | > 150
15 | CCc1ccc(O[C@H](C)COC)c(C2(C(=O)NS(=O)(=O)c3cccc4ncccc34)CC2)c1 [Example I-111, 1-(5-ethyl-2-{[(2R)-1-methoxypropan-2-yl]oxy}phenyl)-N-(quinoline-5-sulfonyl)cyclopropane-1-carboxamide] | < 3 | +++ (≥350) | < 3 | > 150
16 | CCc1ccc(O[C@H](C)COC)c(C2(C(=O)NS(=O)(=O)c3cccc4nc(C)ccc34)CC2)c1 [Example I-112, 1-(5-ethyl-2-{[(2R)-1-methoxypropan-2-yl]oxy}phenyl)-N-(2-methylquinoline-5-sulfonyl)cyclopropane-1-carboxamide] | < 3 | +++ (≥350) | < 3 | > 150
17 | CO[C@@H](C)COc1ccc(C)cc1C1(C(=O)NS(=O)(=O)c2cccc3ncccc23)CC1 [Example I-113, 1-{2-[(2S)-2-methoxypropoxy]-5-methylphenyl}-N-(quinoline-5-sulfonyl)cyclopropane-1-carboxamide] | < 3 | +++ (≥350) | < 3 | > 150
18 | CO[C@@H](C)COc1ccc(C)cc1C1(C(=O)NS(=O)(=O)c2cccc3nc(C)ccc23)CC1 [Example I-114, 1-{2-[(2S)-2-methoxypropoxy]-5-methylphenyl}-N-(2-methylquinoline-5-sulfonyl)cyclopropane-1-carboxamide] | < 3 | +++ (≥350) | < 3 | > 150
19 | CO[C@H](C)COc1ccc(C)cc1C1(C(=O)NS(=O)(=O)c2cccc3ncccc23)CC1 [Example I-115, 1-{2-[(2R)-2-methoxypropoxy]-5-methylphenyl}-N-(quinoline-5-sulfonyl)cyclopropane-1-carboxamide] | < 3 | +++ (≥350) | < 3 | > 150
20 | CO[C@H](C)COc1ccc(C)cc1C1(C(=O)NS(=O)(=O)c2cccc3nc(C)ccc23)CC1 [Example I-116, 1-{2-[(2R)-2-methoxypropoxy]-5-methylphenyl}-N-(2-methylquinoline-5-sulfonyl)cyclopropane-1-carboxamide] | < 3 | +++ (≥350) | < 3 | > 150
21 | CCc1ccc(O[C@H]2CCOC2)c(C2(C(=O)NS(=O)(=O)c3cccc4ncccc34)CC2)c1 [Example I-117, 1-(5-ethyl-2-{[(3S)-oxolan-3-yl]oxy}phenyl)-N-(quinoline-5-sulfonyl)cyclopropane-1-carboxamide] | < 3 | +++ (≥350) | < 3 | > 150
22 | CCc1ccc(O[C@@H]2CCOC2)c(C2(C(=O)NS(=O)(=O)c3cccc4ncccc34)CC2)c1 [Example I-118, 1-(5-ethyl-2-{[(3R)-oxolan-3-yl]oxy}phenyl)-N-(quinoline-5-sulfonyl)cyclopropane-1-carboxamide] | < 3 | +++ (≥350) | < 3 | > 150
23 | CCc1ccc(O[C@@H]2CCOC2)c(C2(C(=O)NS(=O)(=O)c3cccc4nc(C)ccc34)CC2)c1 [Example I-119, 1-(5-ethyl-2-{[(3R)-oxolan-3-yl]oxy}phenyl)-N-(2-methylquinoline-5-sulfonyl)cyclopropane-1-carboxamide] | < 3 | +++ (≥350) | < 3 | > 150
24 | Cc1ccc(O[C@@H]2CCOC2)c(C2(C(=O)NS(=O)(=O)c3cccc4ncccc34)CC2)c1 [Example I-122, 1-(5-methyl-2-{[(3R)-oxolan-3-yl]oxy}phenyl)-N-(quinoline-5-sulfonyl)cyclopropane-1-carboxamide] | < 3 | +++ (≥350) | < 3 | > 150
25 | Cc1ccc(O[C@@H]2CCOC2)c(C2(C(=O)NS(=O)(=O)c3cccc4nc(C)ccc34)CC2)c1 [Example I-123, 1-(5-methyl-2-{[(3R)-oxolan-3-yl]oxy}phenyl)-N-(2-methylquinoline-5-sulfonyl)cyclopropane-1-carboxamide] | < 3 | +++ (≥350) | < 3 | > 150
